Each structure is given as a SMILES string. Converted amounts (≈) assume the structure as drawn.

Format in all cases: functional
Assay [1] has as its system Mycobacterium tuberculosis.
Assay [2] has as its system Mycobacterium tuberculosis. This is another data set of the same source.
For assay [3], the system named is Mycobacterium tuberculosis. This is another data set of the same source.

One may read the MIC as the smallest concentration in the dilution series that meets the test's criterion for growth inhibition. High values mean a less susceptible organism, low ones a more susceptible organism. On to `COc1nc2ccc(Br)cc2cc1[C@@H](c1ccccc1)[C@@](O)(CCN(C)C)c1cccc2ccccc12` [BEDAQUILINE], for which the MIC is 0.03 µg/mL (≈ 0.054 µM) in assay [1] and 0.01 µg/mL (≈ 0.018 µM) in assay [2].
Broadly, the MIC50 is an inhibitory concentration at the 50% level, which refers to growth in some studies and to a panel of isolates in others. A lower MIC50 goes with greater potency. For orientation: MIC90 means the lowest concentration that inhibits either 90% of growth or 90% of the strains tested, depending on the study. Low values mean greater potency, high ones weaker potency. As to `O=[N+]([O-])c1cn2c(n1)OC[C@@H](OCc1ccc(OC(F)(F)F)cc1)C2` [PRETOMANID], in assay [3], the MIC50 came out at 0.015 µg/mL (≈ 0.0418 µM) and the MIC90 was determined as 0.063 µg/mL (≈ 0.175 µM).
